According to patent US20250332279A1, “PHARMACEUTICAL COMPOSITION AND METHOD FOR TREATING GLIOBLASTOMAS” (National Cheng Kung University, priority 2024, published 2025):

Test system: U87MG intracranial brain tumors
Experiment: In vivo antitumor efficiency of gene silencing-enhanced radiotherapy
Parameters: species or system mice
Method: For the animal experiments, luciferase expression plasmid-transfected U87MG cell-implanted pathogen-free male NU/NU mice (5-7 weeks old, 20-25 g, from BioLASCO, Taiwan) were employed in this study. U87MG cells were cultured at 37° C. with 5% CO2 in M EM with 10% fetal bovine serum and 1% penicillin/streptomycin (Invitrogen). Mice were anaesthetized with 2% isoflurane gas and immobilized on a stereotactic frame to implant U87MG cells. A sagittal incision in the skin overlying the calvarium was created. U87MG cell implantation was performed by creating a hole in the exposed cranium 1.5 mm anterior and 2 mm lateral to the bregma using a 27G needle. A total volume of 5 μL of U87MG cell suspension (1×10^5 cell/μL) was injected at a depth of 3 mm from the brain surface over a 5 min period. The needle was withdrawn over 2 min. MRI was performed to monitor brain tumor growth for 7 days after tumor cell implantation.
The details of the CE D procedure are as described in our previous study. Briefly, infusion cannulas were fabricated with silica tubing (Polymicro Technologies, Phoenix, AZ, USA) fused to a 0.1 mL syringe (Plastic One, Roanoke, VA, USA) with a 0.5 mm stepped-tip needle that protruded from the silica guide base. The treatment agents (VLPs or drugs) were loaded into the syringes and attached to a microinfusion pump (Bioanalytical Systems, Lafayette, IN, USA). The syringe with a silica cannula was mounted onto a stereotactic holder and then lowered through a puncture hole made in the skull to the implanted tumor. The sample solution was infused at a rate of 1 μL/min until a volume of 5 μL had been delivered, and the cannula was removed 2 min later.
All animal experiments were approved by the Animal Committee of Chang Gung University and adhered to the experimental animal care guidelines (IACUC NO. CGU106-036). Mice were raised in a room with a thermostat at 26° C. Nu/Nu mice weighing approximately 25-30 g (5-6 weeks old) were tested to confirm the efficacy of the proposed approach. Intracranial brain tumors were induced by transplantation of U87MG cells into mouse brains. Briefly, cultured U87MG cells (5×10^5 cells/mouse) were injected over a 2 min period into the brain using a syringe, and needle withdrawal was conducted over another period of 0.5 min. A total of 50 mice were used, and the experiments were divided into five groups. In Group 1 (n=10), the mice received no further treatment after transplantation of U87MG cells, and these mice served as the control. In Group 2 (n=10), the mice received TrQβ VLPs (5 μM) via CED infusion two times (every 7 days) after 7 days of U87MG cell transplantation. […] The intracranial tumor volume in mice was measured by MR imaging. The survival time was calculated from the day of U87MG cell inoculation (0 day) to the day of death. […]

[1] = CED infusion followed by 2Gy X-ray irradiation

Structure (SMILES): N.N.O=C([O-])C1(C(=O)[O-])CCC1.[Pt+2] [carboplatin]
- median survival [1]: 51 days
- mice survived over 54 days [1]: 10%
- tumor volume by MRI (Day 34, CED infusion followed by 2Gy X-ray irradiation): 18.9±17.8 mm3
- tumor volume by MRI (Day 41, CED infusion followed by 2Gy X-ray irradiation): 55.2±36.5 mm3
